This note sets out measurements from patent publication US20210403435A1, “HERBICIDAL COMPOUNDS” (SYNGENTA CROP PROTECTION AG, priority 2018, published 2021).

Holding throughout (assay): Post-emergence efficacy, glasshouse, evaluated after 13 days
What all share (assay type): in vivo

For one test, the system named is Lolium perenne (LOLPE). The following applies: Lolium perenne, 312 h; post-emergence application, 500 g/Ha, evaluated after 13 days; read-out: Control of weed species LOLPE (100=total damage to plant; 0=no damage to plant). The method in brief: (§1)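 Damage was rated visually 13 days after treatment on a 0–100 scale, where 100 meant total damage. Plants had been raised for 14 days in soil under glasshouse conditions (24/16 °C, 14 h light, 65% humidity) before spraying with an aqueous dilution of an IF50-based formulation.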

A further test concerns Eleusine indica (ELEIN). The note with it: Eleusine indica, 312 h; post-emergence application, 500 g/Ha, evaluated after 13 days; read-out: Control of weed species ELEIN (100=total damage to plant; 0=no damage to plant). The method in brief: as §1
The subject of test [1] is Ipomoea hederacea (IPOHE). The note with it: Ipomoea hederacea, 312 h; post-emergence application, 500 g/Ha, evaluated after 13 days; read-out: Control of weed species IPOHE (100=total damage to plant; 0=no damage to plant). The method in brief: as §1
Test [2] concerns Euphorbia heterophylla (EPHHL). The following applies: Euphorbia heterophylla, 312 h; post-emergence application, 500 g/Ha, evaluated after 13 days; read-out: Control of weed species EPHHL (100=total damage to plant; 0=no damage to plant). The method in brief: as §1
Test [3] concerns Chenopodium album (CHEAL). The following applies: Chenopodium album, 312 h; post-emergence application, 500 g/Ha, evaluated after 13 days; read-out: Control of weed species CHEAL (100=total damage to plant; 0=no damage to plant). The method in brief:
as §1

The next test deals with Setaria faberi (SETFA). The following applies: Setaria faberi, 312 h; post-emergence application, 500 g/Ha, evaluated after 13 days; read-out: Control of weed species SETFA (100=total damage to plant; 0=no damage to plant). The method in brief: as §1
For test [4], the system named is Amaranthus palmeri (AMAPA). The note with it: Amaranthus palmeri, 312 h; post-emergence application, 500 g/Ha, evaluated after 13 days; read-out: Control of weed species AMAPA (100=total damage to plant; 0=no damage to plant). The method in brief: as §1
For test [5], the system named is Digitaria sanguinalis (DIGSA). The following applies: Digitaria sanguinalis, 312 h; post-emergence application, 500 g/Ha, evaluated after 13 days; read-out: Control of weed species DIGSA (100=total damage to plant; 0=no damage to plant). The method in brief: as §1
Test [6] concerns Echinochloa crus-galli (ECHCG). The note with it: Echinochloa crus-galli, 312 h; post-emergence application, 500 g/Ha, evaluated after 13 days; read-out: Control of weed species ECHCG (100=total damage to plant; 0=no damage to plant). The method in brief:
as §1

In the case of `O=C(O)CC[n+]1ccc(C(=O)NCCc2nccs2)cn1` [Compound A143], the pest or weed control at 500 g/ha with Lolium perenne (LOLPE) is 50%; in the test with Eleusine indica (ELEIN) it was 100%; in [1] it was 40%; in test [2] it was 50%; in [3], 90%; in the test with Setaria faberi (SETFA), 80%. Also, the pest or weed control at 500 g/ha in [4] was 100%; in test [5] it was 60%; in test [6] it was 40%.
As to `Cn1ncnc1CCNC(=O)c1cc[n+](CCC(=O)O)nc1` [Compound A144], the pest or weed control at 500 g/ha worked out at 60% in the test with Lolium perenne (LOLPE); 100% in the test with Eleusine indica (ELEIN); 50% in test [1]; 90% in test [2]; 100% in test [3]; 90% in the test with Setaria faberi (SETFA). The values for the pest or weed control at 500 g/ha in [4], in test [5] and in test [6] were 100%, 80% and 60%, respectively.
`O=C(O)CC[n+]1ccc(C(=O)NCCc2ncccn2)cn1` [Compound A145]: the pest or weed control at 500 g/ha with Lolium perenne (LOLPE) is 70%; in the test with Eleusine indica (ELEIN) it was 100%; in test [1], 30%; in test [2] it was 0%; in test [3] it was 100%; in the test with Setaria faberi (SETFA) it was 80%. The values for the pest or weed control at 500 g/ha in test [4], in test [5] and in [6] were 100%, 100% and 60%, respectively.
For the compound `O=C(O)CC[n+]1ccc(C(=O)NCc2nccs2)cn1` [Compound A146], the pest or weed control at 500 g/ha amounted to 100% with Lolium perenne (LOLPE); 80% in the test with Eleusine indica (ELEIN); 20% in test [1]; 20% in [2]; 80% in test [3]; 90% in the test on Setaria faberi (SETFA). Besides, the pest or weed control at 500 g/ha stood at 80% in [4], 100% in test [5] and 100% in test [6].
With `Cn1cnc(CNC(=O)c2cc[n+](CCC(=O)O)nc2)n1` [Compound A147], the pest or weed control at 500 g/ha amounted to 90% in the test with Lolium perenne (LOLPE); 90% in the test on Eleusine indica (ELEIN); 40% in [1]; 80% in test [2]; 90% in test [3]; 80% in the test with Setaria faberi (SETFA). Moreover, the pest or weed control at 500 g/ha in test [4] was 100%; in test [5], 100%; in [6], 90%.
As for `CC1(C)CC(CCNC(=O)c2cc[n+](CCC(=O)O)nc2)=NO1` [Compound A148, 3-[4-[2-(5,5-dimethyl-4H-isoxazol-3-yl)ethylcarbamoyl]pyridazin-1-ium-1-yl]propanoic acid 2,2,2-trifluoroacetate], the pest or weed control at 500 g/ha in the test with Lolium perenne (LOLPE) was determined as 30%; in the test with Eleusine indica (ELEIN), 30%; in test [1] it was 30%; in test [2], 40%; in test [3] it was 90%; with Setaria faberi (SETFA), 50%. Further, the pest or weed control at 500 g/ha in test [4] amounted to 70%; in test [5], 80%; in test [6], 30%.
